According to patent US5264427A, “20-substituted pregnene derivatives and their use as androgen synthesis inhibitors” (priority 1992, dated 1993):
“Also recorded” adds a separate entry of the source. Like-named read-outs stand apart in the source and are kept apart here.

Tests used:
[1] = molecular target: T1, 17(alpha)-hydroxylase (Rattus norvegicus, UniProt P11715); test: 17(alpha)-hydroxylase assay, rat testicular microsomes (Example 1, Table 1); format: biochemical
T1 construct: approximately 1 mg rat testicular microsomal protein in 450 microliters phosphate buffer; from tissue; host or cells: testes of adult male Sprague-Dawley rats (Charles River), microsomal fraction
T1 sequence (P11715 1-507): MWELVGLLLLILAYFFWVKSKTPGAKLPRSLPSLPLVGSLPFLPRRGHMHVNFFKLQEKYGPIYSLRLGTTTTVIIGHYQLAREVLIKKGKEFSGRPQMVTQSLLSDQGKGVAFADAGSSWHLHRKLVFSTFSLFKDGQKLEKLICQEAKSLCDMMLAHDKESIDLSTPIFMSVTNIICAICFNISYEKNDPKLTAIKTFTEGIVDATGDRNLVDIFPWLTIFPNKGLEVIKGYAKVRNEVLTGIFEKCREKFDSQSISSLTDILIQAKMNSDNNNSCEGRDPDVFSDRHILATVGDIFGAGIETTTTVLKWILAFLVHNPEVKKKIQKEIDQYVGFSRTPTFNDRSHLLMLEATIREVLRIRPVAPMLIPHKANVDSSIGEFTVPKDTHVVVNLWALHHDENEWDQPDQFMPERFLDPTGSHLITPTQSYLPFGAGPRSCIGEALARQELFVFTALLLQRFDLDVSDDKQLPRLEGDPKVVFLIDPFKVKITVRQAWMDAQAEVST
Protocol: (§1) Testes were obtained from 220°-250g adult male Sprague-Dawley rats (Charles River), immediately frozen in liquid nitrogen and stored at -70° C. After thawing in the ice bath, the testes were minced and homogenized in 0.25M sucrose (1:4 w/v), then centrifuged at 12,000×gfor 30 min and the resulting supernatant centrifuged at 105,000×g for one hour. The supernatant was then decanted and the pellet containing the microsomes was resuspended in 0.1M sodium phosphate buffer (pH 7.4) (2.5g wet weight of tissue/ 2 ml buffer). All the above procedures were performed at 4C. The microsomal fraction was stored at -70C. Just before use, microsomes were diluted to the concentration of 1.25 g wet weight of tissue/10 ml phosphate buffer.
(§2) The incubation was stopped by cooling the mixture in an ice bath and adding 2 ml ether to each incubation tube. The ^3 H-labelled steriods (progesterone P4; 17(alpha)-hydroxyprogesterone 170HP4, androstenedione A and testosterone T, 8,000dpm each) were added as recovery markers and the steroids were extracted with ether (2 ml×3). The ether was evaporated with air. Steroid carriers (P4, 17-0HP4, A and T, 4 micrograms each) were added to the extracts which were then applied to thin layer chromatography (TLC) plates for separation of the steroids. After development for 1.5 hours in hexanes/ethyl acetate, 65:35(v/v), the steroids were located by UV (254 nm) absorption, scraped off and eluted into scintillation vials with ether. After evaporating the ether, the steroids were dissolved in counting cocktail and the radioactivity measured. The recovery of steroids calculated from the ^3 H-labelled markers was between 80 to 90 percent and the enzyme activity was determined from the percentage conversion of [4-C^14 ]-progesterone to 170HP4, A and T.
(§3) The purity of each steroid on the TLC was confirmed by two methods. First, the percent conversion of each compound in a half amount of the extract from one incubation were compared after separation of TLC and HPLC. The HPLC procedure has been described in detail previously. The solvent system used was methanol/acetonitrile/water (15.6:36.4:48). The flow rate was 1 ml/min and pressure 2200 psi, the retention time of these steroids was P4 38.3 min, 170HP4 15.93 min, A 14.33 min, and T 11.43 min, respectively. Secondly, after the first separation by TLC in solvent system A (hexane/ethyl acetate 65:35), the eluted steroids were chromatographed in solvent system B (chloroform/acetonitrile, 85:15).
^1 Incubation of [4^14 Cprogesterone (various concentration,
microsome (approximately 1 mg protein) and NADPH generating system was
carried out at 37 C. under O2 for 30 min. The apparent Km for this

[2] = in vivo; cited from earlier work
[3] = molecular target: T2, C17,20-lyase (Rattus norvegicus, UniProt P11715); test: C17,20-lyase assay, rat testicular microsomes (Example 1, Table 1); format: biochemical
T2 construct: approximately 1 mg rat testicular microsomal protein in 450 microliters phosphate buffer; from tissue; host or cells: testes of adult male Sprague-Dawley rats (Charles River), microsomal fraction
T2 sequence (P11715 1-507): T1 sequence (P11715 1-507)
Protocol: as §1
(§4) C^17,20 -Lyase: The procedure for measurement of the C17,20 -lyase was similar to the procedure for the 17(alpha)-hydroxylase, except that the substrate was 17(alpha)-hydroxy-[[1,2,6,7-^3 H]-progesterone (various concentration, 10^5 dpm) and recovery markers were [4-^14 C]-labelled steroids. Carrier steroids (170HP4, A and T) were also added to locate the product areas on the TLC plates. The enzyme activity was determined from the percent conversion of 17(alpha)-hydroxy-[1,2,6,7-3H]-progesterone to A and T.
as §3, with “The flow rate was 1 ml/min and pressure 2200 psi, the retention time of these steroids was P4 38.3 min, 170HP4 15.93 min, A 14.33 min, and T 11.43 min, respectively.” left out

[4] = molecular target: T3, 17(alpha)-hydroxylase/C17,20-lyase (Rattus norvegicus, UniProt P11715); test: Hydroxylase/lyase assay, rat testis homogenates, [21-14C]-progesterone side-chain cleavage (Examples 2 and 3, Table 2); format: biochemical; details: progesterone 40 microM, 45 min
T3 construct: with rat testis homogenates (2.7 mg protein in 0.5 ml phosphate buffer); from tissue; host or cells: rat testis homogenate
T3 sequence (P11715 1-507): T1 sequence (P11715 1-507)
Protocol: Compounds I-16 and I-25 were synthesized according to known procedures. The compounds were then assayed for their ability to inhibit the 17(alpha)-hydroxylase/C17,20 -lyase enzyme and the 5(alpha)-reductaseenzyme. The hydroxylase/lyase assay was carried out by incubation of [21-^14 C]-progesterone (40 microM, 70,000 dpm) and candidate inhibitors with rat testis homogenates (2.7 mg protein in 0.5 ml phosphate buffer), NADPH generating system under oxygen for 45 minutes. The enzyme activity was measured according to the conversion of progesterone to the product of C17,20 -side chain cleavage ([2-^14 C]-acetic acid). […] The results were based on the TLC separation.

[5] = molecular target: T4, 5(alpha)-reductase (Homo sapiens, UniProt P31213); test: 5(alpha)-reductase assay, human prostatic (BPH) tissue homogenates (Example 1, Table 1); details: result in words
T4 sequence (P31213 1-254): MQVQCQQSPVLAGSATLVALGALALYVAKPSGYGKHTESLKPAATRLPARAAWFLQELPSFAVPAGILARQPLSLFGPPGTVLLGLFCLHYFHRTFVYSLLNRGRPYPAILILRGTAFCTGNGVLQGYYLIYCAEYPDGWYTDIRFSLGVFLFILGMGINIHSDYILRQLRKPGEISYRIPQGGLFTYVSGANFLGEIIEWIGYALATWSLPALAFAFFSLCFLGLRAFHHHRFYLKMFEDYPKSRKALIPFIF
Protocol: Tissue was homogenized in 0.1M phosphate buffer (60 mg wet weight of tissue/ ml buffer, pH 7.4) at 4C and the homogenates were diluted with an equal volume of buffer before use.
5(alpha)-reductase: [7-^3 H]testosterone (10^6 dpm) was incubated for 30 minutes at 37° C. with the NADPH generating system, homogenate of human prostatic tissue (30mg wet weight of tissue/1 ml buffer) and the candidate inhibitors at concentrations ranging from 0.1-10uM. […] The steroids were extracted with ether and the extracts chromatographed on TLC (chloroform: ether 95:5). […] The steroids were scraped from the plate and radioactivity measured.

[6] = test system: DHT in the prostate; test: In vivo study: DHT concentration in the prostate of male rats (RIA); parameters: species or system rat (male Sprague-Dawley); details: 50 mg/kg/day sc, 21 days
Protocol: (§5) A group of 8 adult male Sprague-Dawley rats were injected sc with vehicle (0.3% hydroxypropyl cellulose, HPC) and a group of 8 rats were injected sc with a suspension of the compound I-23 in HPC (50 mg/kg body weight/day) every 24 hours for 21 days. The rats were autopsied at the last day, the ventral prostates and blood samples were collected. The prostate tissues were stored at -70° C. and the sera were separated first by centrifugation at 2,200 rpm, then stored at -15° C. until assayed. The DHT levels in the rat prostates were measured by radioimmunoassay (RIA) using testosterone/dihydrotestosterone RIA kit from Amersham Co. (Illinois). The testosterone levels in the rat sera were measured by using the [^125 I]-testosterone diagnostic kits (ICN Biochemics Inc.). The results obtained were analyzed by using Student t test.
(§6) The 4-pregnen-3-one-20(beta)-aldoxime was also studied for its effect on male rats in vivo. Male rats were daily treated with the compound at the dose of 50 mg/kg body weight injected subcutaneously for 21 days. […] The serum testosterone of these rats was measured as well.

[7] = molecular target: T5, 17(alpha)-hydroxylase/17,20-lyase enzyme (Rattus norvegicus, UniProt P11715); test: 17(alpha)-hydroxylase/17,20-lyase inhibition, rat testicular microsomes (Example 1); format: biochemical; details: according to Ki values, result in words; listed as 4-pregnen-3-one-20(beta)-aldoxime
T5 sequence (P11715 1-507): T1 sequence (P11715 1-507)
Protocol: as §1
as §2, with “After development for 1.5 hours in hexanes/ethyl acetate, 65:35(v/v), the steroids were located by UV (254 nm) absorption, scraped off and eluted into scintillation vials with ether.” left out
as §4, with “Carrier steroids (170HP4, A and T) were also added to locate the product areas on the TLC plates.” left out

[8] = test system: serum testosterone; test: In vivo study: serum testosterone of male rats (RIA); parameters: species or system rat (male Sprague-Dawley); details: 50 mg/kg/day sc, 21 days
Protocol: as §5, §6

[9] = molecular target: T6, rat testicular 17(alpha)-hydroxylase/C17,20-lyase (Rattus norvegicus, UniProt P11715); test: Hydroxylase/lyase assay, rat testicular homogenates, [21-14C]progesterone (Example 4, Table 3); format: biochemical; details: 0.75 h
T6 construct: rat testicular homogenates (prepared from 220-250g adult male Sprague-Dawley rats); from tissue; host or cells: testes of adult male Sprague-Dawley rats, homogenate
T6 sequence (P11715 1-507): T1 sequence (P11715 1-507)
Protocol: The assay was performed by incubation of rat testicular homogenates (prepared from 220-250g adult male Sprague-Dawley rats, approx. 3.5 mg protein) with [21-^14 C]progesterone (40uM, 5×10^4 dpm), NADPH generating system and candidate inhibitors in phosphate buffer (pH 7.4, total volume 500ul) under oxygen for 45 min at 37° C. Two ml of choloroform was added to each tube to stop the reaction. The steriods were extracted with chloroform and the aqueous phase was treated with charcoal. The side chain cleavage product [2-^14 C]acetic acid in the aqueous phase was mixed with 3a70B counting cocktail and counted on the Rack Beta II liquid scintillation counter. The enzyme activity was determined from the conversion of progesterone P4 to [2-^14 C]acetic acid.

Row | SMILES | Ki ([1]; rat testicular microsomes, progesterone substrate, 30 min, 37 C, N.I. = no inhibition, read-out: 17(alpha)-hydroxylase Ki) [µM] | cortisol production and side-effects, in words [2] | Ki ([3]; rat testicular microsomes, 17(alpha)-hydroxyprogesterone substrate, 30 min, 37 C, N.I. = no inhibition, read-out: C17,20-lyase Ki) [nM] | % Inhibition of 17(alpha)hydroxylase/lyase, [I] = 10 × [S] ([4]; [I] = 10 × [S]) [%] | % Inhibition of 17(alpha)hydroxylase/lyase, [I] = [S] ([4]; [I] = [S]) [%] | inhibition of 5(alpha)-reductase in the human prostate [5] | Ki [1] [µM] | type of inhibition of the hydroxylase ([1]; Lineweaver-Burk) | prostatic DHT levels, effect in words [6] | selectivity lyase versus hydroxylase [7] | Ki [3] [nM] | potency versus Ketoconazole, C17,20-lyase ([3]; FIG. 2, result in words) | type of inhibition of the lyase ([3]; Lineweaver-Burk) | potency relative to ketoconazole for rat testicular C17,20-lyase ([3]; according to the Ki values) | serum testosterone ([8]; n=8, control 4.03±0.64, P<0.005) [ng/ml serum] | plasma testosterone concentrations, effect in words ([8]; rats) | inhibition at 400 µM ([9]; pH 7.4, read-out: Inhibition of 17(alpha)-hydroxylase/C17,20-lyase (%), [I] = 10 × [S]) [%] | inhibition at 40 µM ([9]; pH 7.4, read-out: Inhibition of 17(alpha)-hydroxylase/C17,20-lyase (%), [I] = [S]) [%]
1 | CC(=O)N1CCN(c2ccc(OCC3COC(Cn4ccnc4)(c4ccc(Cl)cc4Cl)O3)cc2)CC1 (stereo not drawn) [Ketoconazole, reference compound] | 39.5 | reduces cortisol production and has a number of side-effects | 3600 | 65.80 | 31.53 | did not inhibit | – | – | – | – | – | – | – | – | – | – | – | –
2 | C[C@H](C=NO)[C@H]1CC[C@H]2[C@@H]3CCC4=CC(=O)CC[C@]4(C)[C@H]3CC[C@]12C [Compound I-23, 4-pregnen-3-oxo-20(beta)-carboxaldehyde oxime] | – | – | – | – | – | – | 31.2 | competitive inhibition | effective in reducing | more specific inhibitor for the lyase than for the hydroxylase; also recorded: preferentially inhibited the lyase rather than the hydroxylase step | 1070 | more potent than Ketoconazole | competitive inhibition | approximately 3.5 fold | 1.60±0.37 | effective in reducing plasma testosterone concentrations | 84 | 39.3
